# Results from ChEMBL document CHEMBL3585330, “Anticancer activity of koningic acid and semisynthetic derivatives” (Bioorg Med Chem, 2015).
# The source made the active and inactive calls. The calls are words filed in the database; no cut-off is given here.
# What was measured:
# [1] = system: HOP-62; assay: Antiproliferative activity against human HOP62 cells assessed as inhibition of cell proliferation incubated for 72 hrs by conventional ATP quantification method; format: functional, cell-based; conditions: HOP-62, 72 h
# [2] = system: A-375; assay: Antiproliferative activity against human A375 cells assessed as inhibition of cell proliferation incubated for 72 hrs by conventional ATP quantification method; format: functional, cell-based; conditions: A-375, 72 h
# [3] = Cmax in mouse at 2.5 mg/kg, po by tandem HPLC-mass spectrometry; format: ADME, organism-based; parameters: dose 2.5 mg/kg, route oral; conditions: in vivo
# [4] = Antiproliferative activity against human NAMALWA cells assessed as inhibition of cell proliferation incubated for 72 hrs by conventional ATP quantification method; format: functional, cell-based; conditions: NAMALVA
# [5] = system: A549; assay: Antitumor activity against human A549 cells xenografted in Swiss mouse aggressive tumor model assessed as effect on rate of tumor growth at 1 mg/kg, ip dosed every day for 5 consecutive days during 2 weeks (q1d5 x 2 schedule); format: functional, organism-based
# [6] = system: OVCAR-3; assay: Antiproliferative activity against human OVCAR3 cells assessed as inhibition of cell proliferation incubated for 72 hrs by conventional ATP quantification method; format: functional, cell-based; conditions: OVCAR-3, 72 h
# [7] = Half life in mouse at 0.5 mg/kg, iv by tandem HPLC-mass spectrometry; format: ADME, organism-based; conditions: in vivo
# [8] = system: HT-29; assay: Cytotoxicity against human HT-29 cells incubated for 72 hrs under hypoxic conditions by MTS assay; format: functional, cell-based
# [9] = system: T47D; assay: Antiproliferative activity against human T47D cells assessed as inhibition of cell proliferation incubated for 72 hrs by conventional ATP quantification method; format: functional, cell-based
# [10] = AUClast in mouse at 2.5 mg/kg, po by tandem HPLC-mass spectrometry; format: ADME, organism-based; parameters: dose 2.5 mg/kg, route oral, time 0 - last; conditions: in vivo
# [11] = Antiproliferative activity against human KG1 cells assessed as inhibition of cell proliferation incubated for 72 hrs by conventional ATP quantification method; format: functional, cell-based; conditions: KG-1, 72 h
# [12] = system: MDA-MB-231; assay: Antiproliferative activity against human MDA-MB-231 cells assessed as inhibition of cell proliferation incubated for 72 hrs by conventional ATP quantification method; format: functional, cell-based; conditions: MDA-MB-231, 72 h
# [13] = system: Mus musculus; assay: Toxicity in Swiss mouse xenografted with human A549 cells assessed as induction of hepatic toxicity at 2.5 and 5 mg/kg, ip dosed every day for 5 consecutive days during 2 weeks (q1d5 x 2 schedule); format: organism-based; conditions: in vivo, 336 h
# [14] = system: A549; assay: (§1) Antiproliferative activity against human A549 cells assessed as inhibition of cell proliferation incubated for 72 hrs by conventional ATP quantification method; format: functional, cell-based; conditions: A549, 72 h
# [15] = system: HT-29; assay: Cytotoxicity against human HT-29 cells incubated for 72 hrs under normoxic conditions by MTS assay; format: functional, cell-based
# [16] = Antiproliferative activity against human WM266.4 cells assessed as inhibition of cell proliferation incubated for 72 hrs by conventional ATP quantification method; format: functional, cell-based; conditions: WM 266-4, 72 h
# [17] = Antiproliferative activity against human BxPC3 cells assessed as inhibition of cell proliferation incubated for 72 hrs by conventional ATP quantification method; format: functional, cell-based; conditions: BXPC-3, 72 h
# [18] = system: A549; assay: Antitumor activity against human A549 cells xenografted in Swiss mouse assessed as reduction of subcutaneous tumor growth at 1 mg/kg, ip dosed every day for 5 consecutive days during 2 weeks (q1d5 x 2 schedule); format: functional, organism-based
# [19] = system: Mus musculus; assay: Toxicity in Swiss mouse xenografted with human A549 cells assessed as induction of icterus at 2.5 mg/kg, ip dosed every day for 4 consecutive days during 2 weeks (q1d4 x 2 schedule); format: organism-based; conditions: in vivo, 336 h
# [20] = system: DU-145; assay: Antiproliferative activity against human DU145 cells assessed as inhibition of cell proliferation incubated for 72 hrs by conventional ATP quantification method; format: functional, cell-based; conditions: DU-145, 72 h
# [21] = system: Mus musculus; assay: Toxicity in Swiss mouse xenografted with human A549 cells assessed as induction of body weight loss at 2.5 mg/kg, ip dosed every day for 4 consecutive days during 2 weeks (q1d4 x 2 schedule); format: organism-based; conditions: in vivo, 336 h
# [22] = Half life in mouse at 1.5 mg/kg, ip by tandem HPLC-mass spectrometry; format: ADME, organism-based; conditions: in vivo
# [23] = Half life in mouse at 2.5 mg/kg, po by tandem HPLC-mass spectrometry; format: ADME, organism-based; conditions: in vivo
# [24] = Cmax in mouse at 1.5 mg/kg, ip by tandem HPLC-mass spectrometry; format: ADME, organism-based; parameters: dose 1.5 mg/kg, route intraperitoneal; conditions: in vivo
# [25] = system: KM12; assay: Antiproliferative activity against human KM12 cells assessed as inhibition of cell proliferation incubated for 72 hrs by conventional ATP quantification method; format: functional, cell-based; conditions: KM12, 72 h
# [26] = system: A-375; assay: Toxicity against human A375 cells assessed as membrane integrity by measuring LDH release incubated for 24 hrs; format: cell-based; conditions: a-375, 24 h
# [27] = system: SK-OV-3; assay: Antiproliferative activity against human SKOV3 cells assessed as inhibition of cell proliferation incubated for 72 hrs by conventional ATP quantification method; format: functional, cell-based; conditions: SK-OV-3, 72 h
# [28] = Oral bioavailability in mouse at 2.5 mg/kg by tandem HPLC-mass spectrometry; format: ADME, organism-based; conditions: in vivo
# [29] = system: A549; assay: Antitumor activity against human A549 cells xenografted in Swiss mouse assessed as effect on median tumor volume at 1 mg/kg, ip dosed every day for 5 consecutive days during 2 weeks (q1d5 x 2 schedule); format: functional, organism-based
# [30] = system: A549; assay: as §1; format: functional, cell-based; conditions: A549, 72 h; remark: listed apart in the source
# [31] = system: HCT-116; assay: (§2) Antiproliferative activity against human HCT116 cells assessed as inhibition of cell proliferation incubated for 72 hrs by conventional ATP quantification method; format: functional, cell-based; conditions: HCT-116, 72 h
# [32] = system: MDA-MB-231; assay: Cytotoxicity against human MDA-MB-231 cells incubated for 72 hrs under hypoxic conditions by MTS assay; format: functional, cell-based
# [33] = system: HCT-116; assay: as §2; format: functional, cell-based; conditions: HCT-116, 72 h; remark: listed apart in the source
# [34] = Antiproliferative activity against human COLO205 cells assessed as inhibition of cell proliferation incubated for 72 hrs by conventional ATP quantification method; format: functional, cell-based; conditions: COLO 205, 72 h
# [35] = system: TK-10; assay: Antiproliferative activity against human TK10 cells assessed as inhibition of cell proliferation incubated for 72 hrs by conventional ATP quantification method; format: functional, cell-based; conditions: TK-10, 72 h
# [36] = AUClast in mouse at 0.5 mg/kg, iv by tandem HPLC-mass spectrometry; format: ADME, organism-based; parameters: dose 0.5 mg/kg, route intravenous, time 0 - last; conditions: in vivo
# [37] = system: NCI-H460; assay: Antiproliferative activity against human NCI-H460 cells assessed as inhibition of cell proliferation incubated for 72 hrs by conventional ATP quantification method; format: functional, cell-based; conditions: NCI-H460, 72 h
# [38] = system: Mus musculus; assay: Toxicity in Swiss mouse xenografted with human A549 cells assessed as induction of renal toxicity at 2.5 and 5 mg/kg, ip dosed every day for 5 consecutive days during 2 weeks (q1d5 x 2 schedule); format: organism-based; conditions: in vivo, 336 h
# [39] = system: A-375; assay: Inhibition of cell invasion of human A375 cells at 10 uM by Boyden chamber assay; format: functional, cell-based
# [40] = system: PANC-1; assay: Induction of ROS generation in human PANC1 cells incubated for 1 hr by DCFH-DA dye based assay; format: functional, cell-based
# [41] = Initial plasma concentration in mouse at 0.5 mg/kg, iv by tandem HPLC-mass spectrometry; format: ADME, organism-based
# [42] = system: HL-60; assay: Antiproliferative activity against human HL60 cells assessed as inhibition of cell proliferation incubated for 72 hrs by conventional ATP quantification method; format: functional, cell-based; conditions: HL-60, 72 h
# [43] = Toxicity in Swiss mouse xenografted with human A549 cells dosed intraperitoneally every day for 5 consecutive days during 2 weeks (q1d5 x 2 schedule); format: organism-based; conditions: in vivo, ip
# [44] = system: A-375; assay: Toxicity against human A375 cells assessed as reduction in cell viability at 10 uM; format: cell-based; conditions: a-375, 10 µM
# [45] = AUClast in mouse at 1.5 mg/kg, ip by tandem HPLC-mass spectrometry; format: ADME, organism-based; parameters: dose 1.5 mg/kg, route intraperitoneal, time 0 - last; conditions: in vivo
# [46] = system: A-375; assay: Antiproliferative activity against human A375 cells assessed as inhibition of cell proliferation incubated for 24 hrs by conventional ATP quantification method relative to untreated control; format: functional
# [47] = system: A-375; assay: Antiproliferative activity against human A375 cells assessed as inhibition of cell proliferation incubated for 24 hrs by conventional ATP quantification method; format: functional, cell-based; conditions: A-375, 24 h
# [48] = Tmax in mouse at 1.5 mg/kg, ip by tandem HPLC-mass spectrometry; format: ADME, organism-based; conditions: in vivo
# [49] = system: MDA-MB-231; assay: Cytotoxicity against human MDA-MB-231 cells incubated for 72 hrs under normoxic conditions by MTS assay; format: functional, cell-based
# [50] = Tmax in mouse at 2.5 mg/kg, po by tandem HPLC-mass spectrometry; format: ADME, organism-based; conditions: in vivo
molecule,measurement,setting,value
CC(C)[C@H]1CC[C@@]2(CO2)[C@H]2C(=O)OCC(C(=O)O)=C[C@H]12,IC50,[1],510 nM
same,IC50,[2],1340 nM
same,Cmax,[3],17 ng/mL
same,IC50,[4],302 nM
same,Activity,[5],inactive
same,IC50,[6],690 nM
same,half-life,[7],2.4 min
same,Activity,[8],Active
same,IC50,[9],210 nM
same,AUC(0-t),[10],8.6 ng·h/mL
same,IC50,[11],400 nM
same,IC50,[12],450 nM
same,Activity,[13],Toxic
same,IC50,[14],458 nM
same,Activity,[15],Active
same,IC50,[16],509 nM
same,IC50,[17],760 nM
same,Activity,[18],inactive
same,Activity,[19],Toxic
same,IC50,[20],890 nM
same,Activity,[21],> 15%
same,half-life,[22],6 min
same,half-life,[23],30 min
same,Cmax,[24],249 ng/mL
same,IC50,[25],410 nM
same,Activity,[26],8%
same,IC50,[27],340 nM
same,bioavailability,[28],17%
same,Activity,[29],inactive
same,IC50,[30],990 nM
same,IC50,[31],930 nM
same,Activity,[32],Active
same,IC50,[33],210 nM
same,IC50,[34],630 nM
same,IC50,[35],660 nM
same,AUC(0-t),[36],10.4 ng·h/mL
same,IC50,[37],490 nM
same,Activity,[38],Toxic
same,inhibition,[39],inactive
same,Activity,[40],inactive
same,C0,[41],180 ng/mL
same,IC50,[42],760 nM
same,MTD at 336 h,[43],1 mg/kg
same,Activity,[44],81%
same,AUC(0-t),[45],78.7 ng·h/mL
same,inhibition (INH),[46],90%
same,IC50,[47],1260 nM
same,Tmax,[48],15 min
same,Activity,[49],Active
same,Tmax,[50],15 min
CNC(=O)C1=C[C@@H]2[C@@H](C(C)C)CC[C@@](O)(CO)[C@H]2C(=O)OC1,IC50,[2],> 32000 nM
same,IC50,[4],> 32000 nM
same,IC50,[14],> 32000 nM
same,IC50,[16],> 32000 nM
same,IC50,[33],> 32000 nM
CNC(=O)C1=C[C@@H]2[C@@H](C(C)C)CC[C@@]3(CO3)[C@H]2C(=O)OC1,IC50,[2],4150 nM
same,IC50,[4],1280 nM
same,IC50,[14],5540 nM
same,IC50,[16],5900 nM
same,IC50,[33],7100 nM
CC(C)[C@H]1CC[C@@](O)(CO)[C@H]2C(=O)OCC(C(=O)O)=C[C@H]12,IC50,[2],> 32000 nM
same,IC50,[4],> 32000 nM
same,IC50,[14],> 32000 nM
same,IC50,[16],> 32000 nM
same,IC50,[33],> 32000 nM
BLEOMYCIN,Activity,[40],Active
CC(C)[C@H]1CC[C@@]2(CO2)[C@H]2C(=O)OCC(C(=O)OCc3ccc(-c4ccccc4)o3)=C[C@H]12,IC50,[2],1310 nM
same,IC50,[4],370 nM
same,IC50,[14],350 nM
same,IC50,[16],960 nM
same,IC50,[33],220 nM
CC(C)[C@H]1CC[C@@](O)(CCl)[C@H]2C(=O)OCC(C(=O)O)=C[C@H]12 [HEPTELIDIC ACID CHLOROHYDRIN],IC50,[2],1310 nM
same,IC50,[4],320 nM
same,IC50,[14],550 nM
same,IC50,[16],550 nM
same,IC50,[33],220 nM
